Results published in ChEMBL document CHEMBL2169878 (J Med Chem, 2012).
pIC50: −log10 of the molar value. The source made the active and inactive calls. The calls are words filed in the database; no cut-off is given here.

Columns and labels:
[1] = system: Salmonella typhimurium; test: Mutagenicity against Salmonella typhimurium TA100 assessed as revertants at 24 uM incubated for 90 mins followed by drug washout measured after 2 days relative to positive control; format: toxicity, organism-based; conditions: salmonella enterica subsp. enterica serovar typhimurium
[2] = system: Salmonella typhimurium; test: Mutagenicity against Salmonella typhimurium TA100 assessed as revertants at 6 uM incubated for 90 mins followed by drug washout measured after 2 days relative to positive control; format: toxicity, organism-based; conditions: salmonella enterica subsp. enterica serovar typhimurium, 1.5 h
[3] = system: Plasmodium falciparum; test: Antiplasmodial activity against chloroquine-resistant Plasmodium falciparum K1 infected in human erythrocytes assessed as inhibition of [3H]hypoxanthine incorporation incubated for 48 hrs prior to [3H]hypoxanthine addition measured after 48 hrs by liquid scintillation counting; format: functional, organism-based
[4] = system: Heart; test: Cardiotoxicity against Sprague-Dawley rat Langendorff perfused heart assessed as atrioventricular conduction time at 1 uM by electrophysiological analysis (reference value: 42.67 2.29 ms); format: toxicity, tissue-based
[5] = system: Heart; test: Cardiotoxicity against Sprague-Dawley rat Langendorff perfused heart assessed as QTc time interval at 30 uM by electrophysiological analysis (reference value: 145.78 10.53 ms); format: toxicity, tissue-based
[6] = system: Plasmodium falciparum; test: Antiplasmodial activity against chloroquine-sensitive Plasmodium falciparum D10 infected in human RBC after 72 hrs by parasite lactate dehydrogenase assay; format: functional, organism-based; conditions: D10, 72 h
[7] = system: Heart; test: Cardiotoxicity against Sprague-Dawley rat Langendorff perfused heart assessed as intraventricular conduction time at 10 uM by electrophysiological analysis (reference value: 13.92 0.42 ms); format: toxicity, tissue-based
[8] = Elimination half life in CD1 albino mouse liver at 50 mg/kg, po; format: ADME, organism-based; set-up: dose 50 mg/kg, route oral; conditions: read-out: beta t1/2 (converted)
[9] = system: Plasmodium falciparum; test: Antiplasmodial activity against chloroquine-sensitive Plasmodium falciparum NF54 infected in human erythrocytes assessed as inhibition of [3H]hypoxanthine incorporation incubated for 48 hrs prior to [3H]hypoxanthine addition measured after 48 hrs by liquid scintillation counting; format: functional, organism-based
[10] = system: Plasmodium berghei; test: Antimalarial activity against Plasmodium berghei ANKA expressing GFP infected in mouse assessed as reduction in parasitemia at 30 mg/kg, po administered at 6,24,48 and 72 hrs post-infection measured 24 hrs post-final dosing by flow cytometric analysis; format: functional; set-up: scale not given: the % may be the effect or the level left
[11] = system: Plasmodium berghei; test: Antimalarial activity against Plasmodium berghei ANKA expressing GFP infected in mouse assessed as mean survival days at 30 mg/kg, po administered 24 hrs post-infection (reference value: 6 to 7 days); format: functional
[12] = system: Heart; test: Cardiotoxicity against Sprague-Dawley rat Langendorff perfused heart assessed as QTc time interval at 0.1 uM by electrophysiological analysis (reference value: 145.78 10.53 ms); format: toxicity, tissue-based
[13] = system: Salmonella typhimurium; test: Mutagenicity against Salmonella typhimurium TA98 assessed as revertants at 12 uM incubated for 90 mins followed by drug washout measured after 2 days relative to positive control; format: toxicity, organism-based; conditions: salmonella enterica subsp. enterica serovar typhimurium
[14] = biological target: T1, Chloroquine resistance transporter (Plasmodium falciparum) (UniProt Q9N623); test: Inhibition of chloroquine-sensitive Plasmodium falciparum D10 CRT expressed in Xenopus laevis oocyte assessed as inhibition of [3H]chloroquine uptake at 100 uM measured from 1 to 2 hrs
T1 sequence (whole entry): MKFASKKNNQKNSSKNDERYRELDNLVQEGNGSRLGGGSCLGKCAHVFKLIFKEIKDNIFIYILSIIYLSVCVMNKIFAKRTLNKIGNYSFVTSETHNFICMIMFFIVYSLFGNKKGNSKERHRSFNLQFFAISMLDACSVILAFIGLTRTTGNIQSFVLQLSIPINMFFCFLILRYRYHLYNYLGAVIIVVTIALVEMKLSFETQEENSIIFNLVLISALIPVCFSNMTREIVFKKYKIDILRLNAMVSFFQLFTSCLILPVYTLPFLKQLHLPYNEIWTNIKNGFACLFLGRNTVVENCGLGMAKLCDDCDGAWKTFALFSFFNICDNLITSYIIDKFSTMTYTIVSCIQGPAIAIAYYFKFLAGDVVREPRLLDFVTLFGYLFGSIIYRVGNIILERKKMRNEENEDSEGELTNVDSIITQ

[15] = system: Plasmodium berghei; test: Antimalarial activity against Plasmodium berghei ANKA expressing GFP infected in mouse assessed as cure from infection at 30 mg/kg, po administered 24 hrs post-infection measured on day 30; format: functional, organism-based; set-up: dose 30 mg/kg
[16] = system: Heart; test: Cardiotoxicity against Sprague-Dawley rat Langendorff perfused heart assessed as intraventricular conduction time at 0.1 uM by electrophysiological analysis (reference value: 13.92 0.42 ms); format: toxicity, tissue-based
[17] = Clearance in CD1 albino mouse at 50 mg/kg, po; format: ADME, organism-based; set-up: dose 50 mg/kg, route oral; conditions: in vivo
[18] = system: Liver; test: Drug uptake in CD1 albino mouse liver at 50 mg/kg, po at 6 to 48 hrs; format: ADME, organism-based; set-up: dose 50 mg/kg, route oral; conditions: in vivo
[19] = system: Salmonella typhimurium; test: Mutagenicity against Salmonella typhimurium TA98 assessed as revertants at 3 uM incubated for 90 mins followed by drug washout measured after 2 days relative to positive control; format: toxicity, organism-based; conditions: salmonella enterica subsp. enterica serovar typhimurium, 1.5 h
[20] = system: Heart; test: Cardiotoxicity against Sprague-Dawley rat Langendorff perfused heart assessed as QT time interval at 10 uM by electrophysiological analysis (reference value: 73.01 4.52 ms); format: toxicity, tissue-based
[21] = system: Plasmodium berghei; test: Antimalarial activity against Plasmodium berghei ANKA expressing GFP infected in mouse assessed as cure from infection at 30 mg/kg, po administered at 6,24,48 and 72 hrs post-infection measured on day 30; format: functional, organism-based; set-up: dose 30 mg/kg
[22] = system: Heart; test: Cardiotoxicity against Sprague-Dawley rat Langendorff perfused heart assessed as cycle length time at 0.1 uM by electrophysiological analysis (reference value: 258.62 8.87 ms); format: toxicity, tissue-based
[23] = system: Heart; test: Cardiotoxicity against Sprague-Dawley rat Langendorff perfused heart assessed as QT time interval at 30 uM by electrophysiological analysis (reference value: 73.01 4.52 ms); format: toxicity, tissue-based
[24] = system: Salmonella typhimurium; test: Mutagenicity against Salmonella typhimurium TA100 assessed as revertants at 3 uM incubated for 90 mins followed by drug washout measured after 2 days relative to positive control; format: toxicity, organism-based; conditions: salmonella enterica subsp. enterica serovar typhimurium, 1.5 h
[25] = Inhibition of beta hematin formation assessed as molar equivalent of the compound required to inhibit 50 % beta-hematin formation after 18 hrs by spectrophotometric microassay relative to hemin; format: functional
[26] = system: Heart; test: Cardiotoxicity against Sprague-Dawley rat Langendorff perfused heart assessed as atrioventricular conduction time at 30 uM by electrophysiological analysis (reference value: 42.67 2.29 ms); format: toxicity, tissue-based
[27] = system: Salmonella typhimurium; test: Mutagenicity against Salmonella typhimurium TA100 assessed as revertants at 48 uM incubated for 90 mins followed by drug washout measured after 2 days relative to positive control; format: toxicity, organism-based; conditions: salmonella enterica subsp. enterica serovar typhimurium
[28] = system: Heart; test: Cardiotoxicity against Sprague-Dawley rat Langendorff perfused heart assessed as cycle length time at 30 uM by electrophysiological analysis (reference value: 258.62 8.87 ms); format: toxicity, tissue-based
[29] = system: Heart; test: Cardiotoxicity against Sprague-Dawley rat Langendorff perfused heart assessed as intraventricular conduction time at 30 uM by electrophysiological analysis (reference value: 13.92 0.42 ms); format: toxicity, tissue-based
[30] = system: Plasma; test: Drug uptake in CD1 albino mouse plasma at 50 mg/kg, po up to 48 hrs; format: ADME, organism-based; set-up: dose 50 mg/kg, route oral; conditions: in vivo
[31] = system: Salmonella typhimurium; test: Mutagenicity against Salmonella typhimurium TA98 assessed as revertants at 48 uM incubated for 90 mins followed by drug washout measured after 2 days relative to positive control; format: toxicity, organism-based; conditions: salmonella enterica subsp. enterica serovar typhimurium, 1.5 h
[32] = system: Plasmodium falciparum; test: Resistance ratio of IC50 for chloroquine-resistant Plasmodium falciparum W2 to IC50 for chloroquine-sensitive Plasmodium falciparum D10; format: functional

Compound: Clc1ccc(C(Nc2ccnc3cc(Cl)ccc23)c2ccc(CN3CCNCC3)cc2)cc1 (racemic)
- Activity [1]: 27%
- Activity [2]: 13%
- pIC50 [3]: 7.66
- Time [4]: 42.38 ms
- Time [5]: 168.83 ms
- pIC50 [6]: 7.21
- Time [7]: 17 ms
- half-life [8]: 29 h
- pIC50 [9]: 7.77
- Activity [10]: 99.8%
- MSD [11]: 15.8 days
- Time [12]: 145.15 ms
- Activity [13]: 4%
- inhibition [14]: inactive
- Activity [15]: inactive
- Time [16]: 14 ms
- CL/F [17]: 82 mL/min/kg
- Drug uptake [18]: Not Active
- Activity [19]: 4%
- Time [20]: 94.5 ms
- Activity [21]: inactive
- Time [22]: 256.97 ms
- Time [23]: 94.33 ms
- Activity [24]: 22%
- inhibition [25]: Dose-dependent effect
- Time [26]: 75.67 ms
- Activity [27]: 28%
- Time [28]: 317 ms
- Time [29]: 22.67 ms
- Drug uptake [30]: Active
- Activity [31]: 4%
- Ratio IC50 [32]: 0.93
